Values quoted from earlier work as cited in patent US10564084B2, “Rapid characterization of the solubility of amphiphiles” (The Trustees of Princeton University, priority 2013, dated 2020).

Details: in water; used to rescale the concentration c

## CCCCCCCCCCCCCCCC[N+](C)(C)C.[Cl-] [C16TAC, hexadecyl trimethylammonium chloride]
  critical micellar concentration cmc: 1.6 mM
